Where “and” joins values, the source holds several entries; their conditions need not be identical. Equal values may be shown once.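 Five concentrations, 48 hours, 96-well plates. Here, GI50 denotes the concentration required for 50% inhibition of growth. TGI is the concentration that stops growth completely.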

Holding throughout (assay): NCI-60 cell line screen, 48 h
Test [1] deals with 786-0 renal.
Test [2] concerns CAKI-1 renal.
The subject of test [3] is LOX IMVI melanoma.
The subject of test [4] is MCF7 breast.
Test [5] concerns OVCAR-5 ovarian.
Test [6] concerns RPMI-8226 leukemia.
Test [7] deals with SK-MEL-2 melanoma.
The test system of test [8] is MALME-3M melanoma.
The test system of test [9] is SF-268 CNS.
Test [10] deals with HOP-92 NSCLC.

Turning to `Nc1n[n+]([O-])c2cc([N+](=O)[O-])ccc2[n+]1[O-]`, the TGI in [1] is 17.3 µM; in test [2] it was 20.6 µM; in test [3], more than 100 µM; in test [4], 11.7 µM; in test [5] it was 42.2 µM; in test [6], more than 100 µM. For the same molecule, the TGI in [7] was determined as 36.3 µM.

Take `N#CCc1c(F)c(F)c(F)c(F)c1F`: the TGI in [1], in test [2], in test [3], in [8], in test [4] and in [5] was more than 100 µM throughout. Moreover, the TGI in test [6] and in [9] was more than 100 µM throughout.

For the molecule `Nc1nc(=O)n(C2CC(O)C(CO)O2)cc1F` (configuration not stated), the GI50 in [1] was 0.0589 µM; in test [2], less than 0.0119 µM; in test [10], 1.65 µM; in test [3], 0.01 µM; in test [8], more than 100 µM; in test [4], 0.00235 µM. Moreover, the GI50 in test [5] is more than 100 µM; in test [9] it was 0.00946 µM. The TGI in test [1], in test [2], in test [3], in [8], in [4] and in test [5] was more than 100 µM throughout. Besides, the TGI in test [6], in [9] and in test [7] was more than 100 µM each time.

For `N#Cc1ncc(C(Cl)Cl)nc1Cl`, the TGI in test [1] is 3.16 µM; in test [2], 2.89 µM; in test [10] it was 0.536 µM; in [3], 2.97 µM; in test [8], more than 6.39 µM; in test [4], 3.86 µM. The TGI in test [5] is 4.39 µM; in test [9], more than 7.78 µM; in test [7], 4.33 µM.

Take `OCC#CCOCC#Cc1ccccc1C#CCOCC#CCO`: the GI50 in test [1] is 34 µM; in [2], 82.8 µM; in test [10], 21.8 µM; in [4] it was 40.7 µM; in [5], more than 100 µM; in [6], 13.7 µM. Further, the GI50 in test [9] was 36.9 µM; in [7], more than 100 µM. For the same molecule, the TGI in [1] is more than 100 µM; in [2], more than 100 µM; in [10], more than 100 µM; in [4], more than 100 µM; in [5] it was more than 100 µM; in test [6], 35.3 µM. For the same molecule, the TGI in test [9] and in test [7] was more than 100 µM in each case.

`CCCCCCCCSC(=O)NCCCC`: the TGI in test [1] was more than 100 µM; in [2] it was more than 100 µM; in test [10], 53.9 µM; in [3], 40.2 µM; in [8], 68.5 µM; in test [5], more than 100 µM. Further, the TGI is 57.9 µM in test [6], more than 100 µM in test [9] and 45.6 µM in [7].

Consider `O=C1c2c(O)cccc2C(C(=O)CCCCCC(=O)C2c3cccc(O)c3C(=O)c3c(O)cccc32)c2cccc(O)c21`, for which the TGI in test [1] was 21.6 µM; in test [2], 10.2 µM and 19.9 µM; in test [10], 16.8 µM; in test [3] it was 8.85 µM and 7.1 µM; in [8], 5.87 µM and 15.3 µM; in [5] it was 7.43 µM and 14.4 µM. The TGI in test [6] was 2.1 µM and 4.41 µM; in [9], 4.52 µM and 11.9 µM; in test [7] it was 3.61 µM and 6.64 µM. Moreover, the GI50 is 10.6 µM in [2]; 1.95 µM in [3]; 8.38 µM in [8]; 6.96 µM in test [5]; 1.55 µM in [6]; 5.02 µM in test [9]. The GI50 in [7] was 1.83 µM.

Take `O=C(NC1CCN(Cc2ccccc2)CC1)c1cc(-c2cccnc2)nc2ccc(Cl)cc12`: the GI50 in [1] is 4.63 µM; in test [2], 3.24 µM; in test [3], 3.27 µM; in [8], 7.92 µM; in test [4], 4.78 µM; in test [5], 10.8 µM. For the same molecule, the GI50 was 6.62 µM in test [6] and 9.27 µM in test [9]. Moreover, the TGI in [1] is 17.7 µM; in test [2], 19.1 µM; in [3] it was 17.2 µM; in [8] it was more than 100 µM; in [4], more than 100 µM; in test [5] it was more than 100 µM. The TGI in test [6] was more than 100 µM; in [9] it was 70.1 µM.

Turning to `Cc1ccc2c(c1)[n+](=O)c(C(=O)c1cccs1)c(C(F)(F)F)n2[O-]`, the GI50 in test [1] is 4.85 µM and 1.05 µM; in test [2] it was 0.856 µM and 0.395 µM; in test [10] it was 1.63 µM and 1.78 µM; in test [3], 0.612 µM and 0.561 µM; in test [4], 0.875 µM and 0.456 µM; in test [5], 1.58 µM and 1.57 µM. Also, the GI50 was 1.54 µM and 0.356 µM in test [6]; 0.881 µM and 0.108 µM in test [9]. The TGI was 50 µM and 12.4 µM in [1]; 3.43 µM and 4.07 µM in test [2]; 11.5 µM and 15.3 µM in test [10]; 1.76 µM and 1.82 µM in test [3]; 3.79 µM and 21.5 µM in test [4]; 7.48 µM and 12.9 µM in [5]. The TGI was 3.31 µM and 0.511 µM in [9]; 50 µM and 18.6 µM in test [7].

With `COc1ccccc1-n1cnc(N)c1C(=O)c1cc(OC)c(OC)c(OC)c1`, the GI50 in test [1] was 5.41 µM; in test [2], 3.12 µM; in test [10] it was 43.8 µM; in test [3], 6.39 µM; in test [8], 4.33 µM; in test [4] it was 2.49 µM. Moreover, the GI50 in test [5] was 62.5 µM; in test [6] it was 2.42 µM; in test [9], 4.44 µM. Moreover, the TGI in test [1], in [2], in [10], in test [3], in test [8] and in test [4] was more than 100 µM in each case. Besides, the TGI was more than 100 µM in [5], 13.3 µM in test [6] and more than 100 µM in test [9].
